What was measured:
Details in all cases: K-2 at 1 × 10^−7 mol/L
Adenosine A1 = Adenosine A1 (Homo sapiens, UniProt P30542); assay: Receptor binding panel: Adenosine A1
α2B-Adrenergic = α2B-Adrenergic (Homo sapiens, UniProt P18089); assay: Receptor binding panel: α2B-Adrenergic
Angiotensin AT1 = Angiotensin AT1 (Homo sapiens, UniProt P30556); assay: Receptor binding panel: Angiotensin AT1
Dopamine D1 = Dopamine D1 (Homo sapiens, UniProt P21728); assay: Receptor binding panel: Dopamine D1
GABA A (Agonist site) = assay: Receptor binding panel: GABA A (Agonist site)
Glutamate (AMPA) = assay: Receptor binding panel: Glutamate (AMPA)
Histamine H1 = Histamine H1 (Homo sapiens, UniProt P35367); assay: Receptor binding panel: Histamine H1
Histamine H2 = Histamine H2 (Homo sapiens, UniProt P25021); assay: Receptor binding panel: Histamine H2
K Channel SKCa = assay: Receptor binding panel: K Channel SKCa
Leukotriene B4 = assay: Receptor binding panel: Leukotriene B4
Muscarinic M1 = Muscarinic M1 (Homo sapiens, UniProt P11229); assay: Receptor binding panel: Muscarinic M1
Na channel site 2 = assay: Receptor binding panel: Na channel site 2
Neurokinin NK2 = Neurokinin NK2 (Homo sapiens, UniProt P21452); assay: Receptor binding panel: Neurokinin NK2
[1] = target: Norepinephrine transporter (Homo sapiens, UniProt P23975); assay: Receptor binding panel: Norepinephrine transporter
Nicotinic = assay: Receptor binding panel: Nicotinic; design: species or system Human
Opiate κ = Opiate κ (Homo sapiens, UniProt P41145); assay: Receptor binding panel: Opiate κ
Serotonin 5HT2A = Serotonin 5HT2A (Homo sapiens, UniProt P28223); assay: Receptor binding panel: Serotonin 5HT2A
Sigma σ1 = Sigma σ1 (Homo sapiens, UniProt Q99720); assay: Receptor binding panel: Sigma σ1
Vasopressin V1B = Vasopressin V1B (Homo sapiens, UniProt P47901); assay: Receptor binding panel: Vasopressin V1B
Vasopressin V1B, sequence (P47901 whole entry): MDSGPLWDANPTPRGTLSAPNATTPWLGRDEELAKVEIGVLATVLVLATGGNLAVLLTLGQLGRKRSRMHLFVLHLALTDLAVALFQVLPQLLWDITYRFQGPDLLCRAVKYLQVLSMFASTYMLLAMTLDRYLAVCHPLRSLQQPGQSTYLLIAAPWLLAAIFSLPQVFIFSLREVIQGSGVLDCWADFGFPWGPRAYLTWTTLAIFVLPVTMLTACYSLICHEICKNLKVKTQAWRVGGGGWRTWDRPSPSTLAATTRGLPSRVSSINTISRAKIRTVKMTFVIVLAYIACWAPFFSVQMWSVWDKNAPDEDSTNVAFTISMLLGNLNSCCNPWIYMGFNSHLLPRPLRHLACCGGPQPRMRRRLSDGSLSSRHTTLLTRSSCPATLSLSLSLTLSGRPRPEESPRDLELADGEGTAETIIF

Norepinephrine transporter, sequence (P23975 whole entry): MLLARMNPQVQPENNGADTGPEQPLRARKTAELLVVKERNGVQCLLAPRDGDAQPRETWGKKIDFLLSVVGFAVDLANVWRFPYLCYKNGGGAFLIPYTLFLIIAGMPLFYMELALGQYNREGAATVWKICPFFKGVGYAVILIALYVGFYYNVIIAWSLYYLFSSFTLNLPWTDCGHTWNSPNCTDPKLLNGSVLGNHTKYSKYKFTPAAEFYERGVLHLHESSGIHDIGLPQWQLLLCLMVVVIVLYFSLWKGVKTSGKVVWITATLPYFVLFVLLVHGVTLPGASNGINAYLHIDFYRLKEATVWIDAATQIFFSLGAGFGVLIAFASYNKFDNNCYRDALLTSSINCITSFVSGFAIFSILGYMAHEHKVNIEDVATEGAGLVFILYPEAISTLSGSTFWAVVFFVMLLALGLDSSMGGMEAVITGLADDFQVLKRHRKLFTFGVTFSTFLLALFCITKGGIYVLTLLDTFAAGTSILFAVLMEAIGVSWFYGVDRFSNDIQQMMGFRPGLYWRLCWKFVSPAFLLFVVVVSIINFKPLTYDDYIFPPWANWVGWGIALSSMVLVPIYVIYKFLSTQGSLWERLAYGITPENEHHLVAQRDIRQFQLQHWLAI
Sigma σ1, sequence (Q99720 whole entry): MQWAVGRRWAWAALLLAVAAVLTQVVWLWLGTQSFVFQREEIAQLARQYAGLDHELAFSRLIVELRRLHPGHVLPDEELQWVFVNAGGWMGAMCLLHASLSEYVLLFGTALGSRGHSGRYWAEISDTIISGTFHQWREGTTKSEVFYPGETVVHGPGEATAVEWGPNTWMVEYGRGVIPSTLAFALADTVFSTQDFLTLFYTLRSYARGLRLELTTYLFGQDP
Dopamine D1, sequence (P21728 whole entry): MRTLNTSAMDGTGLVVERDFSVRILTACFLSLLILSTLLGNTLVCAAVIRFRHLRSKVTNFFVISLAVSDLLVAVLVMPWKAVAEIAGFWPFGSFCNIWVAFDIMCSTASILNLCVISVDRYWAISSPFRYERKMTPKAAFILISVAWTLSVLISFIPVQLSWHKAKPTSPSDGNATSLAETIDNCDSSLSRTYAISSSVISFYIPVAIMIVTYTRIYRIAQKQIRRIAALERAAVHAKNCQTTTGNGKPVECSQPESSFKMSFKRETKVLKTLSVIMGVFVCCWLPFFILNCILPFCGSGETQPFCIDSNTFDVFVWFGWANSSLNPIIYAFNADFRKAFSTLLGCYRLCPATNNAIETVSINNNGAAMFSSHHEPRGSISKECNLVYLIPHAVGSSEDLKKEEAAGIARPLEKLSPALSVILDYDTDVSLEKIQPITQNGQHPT
Histamine H1, sequence (P35367 whole entry): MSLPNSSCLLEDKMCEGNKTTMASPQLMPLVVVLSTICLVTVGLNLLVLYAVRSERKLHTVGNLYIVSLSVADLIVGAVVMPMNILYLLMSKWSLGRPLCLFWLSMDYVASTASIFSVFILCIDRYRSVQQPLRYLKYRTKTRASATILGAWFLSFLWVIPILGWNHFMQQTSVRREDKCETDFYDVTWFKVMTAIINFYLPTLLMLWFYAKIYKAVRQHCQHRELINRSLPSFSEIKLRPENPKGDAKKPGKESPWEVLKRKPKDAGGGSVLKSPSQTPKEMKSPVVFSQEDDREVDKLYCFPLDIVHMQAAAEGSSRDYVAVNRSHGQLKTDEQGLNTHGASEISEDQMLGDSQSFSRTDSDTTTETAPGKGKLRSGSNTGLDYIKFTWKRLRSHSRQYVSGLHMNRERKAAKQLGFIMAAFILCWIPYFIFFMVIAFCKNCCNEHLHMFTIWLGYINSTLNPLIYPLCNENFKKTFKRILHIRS
Histamine H2, sequence (P25021 whole entry): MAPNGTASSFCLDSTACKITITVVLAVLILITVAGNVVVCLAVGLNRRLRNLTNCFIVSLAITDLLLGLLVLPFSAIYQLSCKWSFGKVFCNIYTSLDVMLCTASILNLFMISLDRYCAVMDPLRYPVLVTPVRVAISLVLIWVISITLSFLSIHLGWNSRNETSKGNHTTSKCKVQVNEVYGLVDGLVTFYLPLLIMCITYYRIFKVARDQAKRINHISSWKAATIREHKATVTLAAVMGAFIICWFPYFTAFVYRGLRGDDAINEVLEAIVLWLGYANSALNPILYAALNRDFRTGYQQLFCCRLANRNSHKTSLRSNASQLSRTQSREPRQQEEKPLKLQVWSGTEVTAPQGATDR
α2B-Adrenergic, sequence (P18089 whole entry): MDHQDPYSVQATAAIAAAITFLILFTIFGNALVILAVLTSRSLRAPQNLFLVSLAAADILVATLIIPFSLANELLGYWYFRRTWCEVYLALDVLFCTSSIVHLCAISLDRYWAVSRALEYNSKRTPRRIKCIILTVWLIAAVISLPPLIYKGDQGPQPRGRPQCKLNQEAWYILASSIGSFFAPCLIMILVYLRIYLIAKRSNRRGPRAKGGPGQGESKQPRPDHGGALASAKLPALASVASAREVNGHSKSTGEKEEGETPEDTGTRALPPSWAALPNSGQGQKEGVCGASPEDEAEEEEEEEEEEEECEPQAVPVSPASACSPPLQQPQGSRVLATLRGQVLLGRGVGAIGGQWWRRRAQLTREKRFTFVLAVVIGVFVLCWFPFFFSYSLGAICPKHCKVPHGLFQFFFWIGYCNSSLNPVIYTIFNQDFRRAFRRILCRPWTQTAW
Angiotensin AT1, sequence (P30556 whole entry): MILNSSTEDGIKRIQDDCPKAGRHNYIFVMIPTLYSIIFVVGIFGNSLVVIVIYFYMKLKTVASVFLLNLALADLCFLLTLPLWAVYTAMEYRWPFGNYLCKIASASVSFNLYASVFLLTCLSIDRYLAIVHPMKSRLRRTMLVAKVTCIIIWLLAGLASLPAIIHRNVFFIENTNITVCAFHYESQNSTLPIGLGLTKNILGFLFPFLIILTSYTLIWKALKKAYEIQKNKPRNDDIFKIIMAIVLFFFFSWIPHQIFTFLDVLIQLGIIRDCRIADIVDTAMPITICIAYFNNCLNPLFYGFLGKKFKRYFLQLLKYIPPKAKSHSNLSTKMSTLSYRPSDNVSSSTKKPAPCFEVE
Opiate κ, sequence (P41145 whole entry): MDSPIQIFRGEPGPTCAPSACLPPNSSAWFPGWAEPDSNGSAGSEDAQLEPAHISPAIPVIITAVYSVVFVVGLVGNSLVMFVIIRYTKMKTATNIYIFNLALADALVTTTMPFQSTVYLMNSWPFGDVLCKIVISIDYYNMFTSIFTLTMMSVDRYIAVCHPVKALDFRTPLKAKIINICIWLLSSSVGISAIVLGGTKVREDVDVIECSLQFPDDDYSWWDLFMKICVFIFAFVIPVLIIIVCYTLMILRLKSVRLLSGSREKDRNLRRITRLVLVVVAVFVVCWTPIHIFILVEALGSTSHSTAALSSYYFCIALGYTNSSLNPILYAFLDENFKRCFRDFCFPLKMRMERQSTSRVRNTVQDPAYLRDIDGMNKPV
Neurokinin NK2, sequence (P21452 whole entry): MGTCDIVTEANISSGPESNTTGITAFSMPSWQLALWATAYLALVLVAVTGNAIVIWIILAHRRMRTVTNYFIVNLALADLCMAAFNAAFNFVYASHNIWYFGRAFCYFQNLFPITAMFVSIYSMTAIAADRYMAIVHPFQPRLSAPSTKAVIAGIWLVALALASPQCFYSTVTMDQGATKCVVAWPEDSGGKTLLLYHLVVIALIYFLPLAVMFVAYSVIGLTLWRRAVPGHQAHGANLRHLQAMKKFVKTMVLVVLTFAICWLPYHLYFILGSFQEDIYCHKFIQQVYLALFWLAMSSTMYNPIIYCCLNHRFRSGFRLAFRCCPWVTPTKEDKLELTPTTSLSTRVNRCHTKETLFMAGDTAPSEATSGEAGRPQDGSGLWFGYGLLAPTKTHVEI
Muscarinic M1, sequence (P11229 whole entry): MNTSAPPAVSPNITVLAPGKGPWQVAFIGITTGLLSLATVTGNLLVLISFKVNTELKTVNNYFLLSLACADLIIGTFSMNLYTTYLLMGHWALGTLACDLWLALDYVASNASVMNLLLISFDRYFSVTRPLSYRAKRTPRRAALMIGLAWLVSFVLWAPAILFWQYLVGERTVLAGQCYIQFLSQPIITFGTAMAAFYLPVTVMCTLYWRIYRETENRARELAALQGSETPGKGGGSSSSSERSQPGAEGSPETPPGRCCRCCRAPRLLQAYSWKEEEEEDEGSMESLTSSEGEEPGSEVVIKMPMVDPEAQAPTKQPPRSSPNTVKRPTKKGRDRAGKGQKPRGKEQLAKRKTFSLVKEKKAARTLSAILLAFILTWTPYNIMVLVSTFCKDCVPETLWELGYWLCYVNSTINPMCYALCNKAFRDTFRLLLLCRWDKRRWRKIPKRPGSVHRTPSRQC
Adenosine A1, sequence (P30542 whole entry): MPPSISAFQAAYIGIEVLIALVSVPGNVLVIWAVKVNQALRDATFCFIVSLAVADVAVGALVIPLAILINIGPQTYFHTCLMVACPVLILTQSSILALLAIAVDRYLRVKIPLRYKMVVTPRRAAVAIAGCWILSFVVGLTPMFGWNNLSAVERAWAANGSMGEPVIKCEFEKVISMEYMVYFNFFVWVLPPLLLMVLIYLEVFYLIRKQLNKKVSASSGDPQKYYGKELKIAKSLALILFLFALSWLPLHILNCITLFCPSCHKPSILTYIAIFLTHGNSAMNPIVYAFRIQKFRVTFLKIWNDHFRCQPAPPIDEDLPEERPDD

SMILES: CN(CCSc1cc(F)c(OCC(N)=O)c(F)c1)S(=O)(=O)c1ccccc1 [K-2, {4-[2-(benzenesulfonyl-methyl-amino)-ethylsulfanil]-2,6-difluoro-phenoxy}-acetamide]
- inhibition at 0.1 µM (Adenosine A1): 5.29%
- inhibition at 0.1 µM (α2B-Adrenergic): 5.83%
- inhibition at 0.1 µM (Angiotensin AT1): 1.52%
- inhibition at 0.1 µM (Dopamine D1): 10.2%
- Inhibition (%) (GABA A (Agonist site)): 0.38%
- Inhibition (%) (Glutamate (AMPA)): 1.74%
- inhibition at 0.1 µM (Histamine H1): 6.53%
- inhibition at 0.1 µM (Histamine H2): 0.79%
- Inhibition (%) (K Channel SKCa): 0.00%
- Inhibition (%) (Leukotriene B4): 0.00%
- inhibition at 0.1 µM (Muscarinic M1): 2.24%
- Inhibition (%) (Na channel site 2): 11.15%
- inhibition at 0.1 µM (Neurokinin NK2): 0.61%
- inhibition at 0.1 µM [1]: 0%
- Inhibition (%) (Nicotinic): 7.17%
- inhibition at 0.1 µM (Opiate κ): 0%
- inhibition at 0.1 µM (Serotonin 5HT2A): 9.32%
- inhibition at 0.1 µM (Sigma σ1): 2.88%
- inhibition at 0.1 µM (Vasopressin V1B): 1.48%

From patent publication US10335503B2, “Compound that specifically binds to AMPA receptor” (Public University Corporation Yokohama City University, priority 2015, dated 2019)
